Columns and labels:
hVR1 = biological target: T1, hVR1 (Homo sapiens, UniProt Q8NER1); assay: Functional test on VR1, FLIPR Ca2+ influx in transfected CHO K1 cells, capsaicin; type: cell-based, human being; design: key to Ki (human being) [nM] Cap: agonist / partial agonist / no effect: AG=agonist; pAG=partial agonist; NE=no effect; conditions: for Ki: capsaicin (Cap), includes values given in brackets after pAG, read-out: Ki (human being) [nM] Cap
T1 construct: expressed in transfected cells; host or cells: CHO K1 cells (ECACC), stably transfected

[1] = biological target: T2, rat-species vanilloid receptor 1 (VR1/TRPV1) (Rattus norvegicus, UniProt O35433); assay: Functional testing on the vanilloid receptor 1, FLIPR Ca2+ influx in rat DRG cells, capsaicin; type: cell-based; design: key to Ki (rat) [nM] Cap: agonist / partial agonist / no effect: AG=agonist; pAG=partial agonist; NE=no effect; conditions: for Ki: capsaicin (Cap), includes values given in brackets after pAG
T2 construct: endogenous in cells; host or cells: primary cells dissociated from rat dorsal root ganglia (DRG), cultured 2-3 days with NGF
T2 sequence (O35433 whole entry): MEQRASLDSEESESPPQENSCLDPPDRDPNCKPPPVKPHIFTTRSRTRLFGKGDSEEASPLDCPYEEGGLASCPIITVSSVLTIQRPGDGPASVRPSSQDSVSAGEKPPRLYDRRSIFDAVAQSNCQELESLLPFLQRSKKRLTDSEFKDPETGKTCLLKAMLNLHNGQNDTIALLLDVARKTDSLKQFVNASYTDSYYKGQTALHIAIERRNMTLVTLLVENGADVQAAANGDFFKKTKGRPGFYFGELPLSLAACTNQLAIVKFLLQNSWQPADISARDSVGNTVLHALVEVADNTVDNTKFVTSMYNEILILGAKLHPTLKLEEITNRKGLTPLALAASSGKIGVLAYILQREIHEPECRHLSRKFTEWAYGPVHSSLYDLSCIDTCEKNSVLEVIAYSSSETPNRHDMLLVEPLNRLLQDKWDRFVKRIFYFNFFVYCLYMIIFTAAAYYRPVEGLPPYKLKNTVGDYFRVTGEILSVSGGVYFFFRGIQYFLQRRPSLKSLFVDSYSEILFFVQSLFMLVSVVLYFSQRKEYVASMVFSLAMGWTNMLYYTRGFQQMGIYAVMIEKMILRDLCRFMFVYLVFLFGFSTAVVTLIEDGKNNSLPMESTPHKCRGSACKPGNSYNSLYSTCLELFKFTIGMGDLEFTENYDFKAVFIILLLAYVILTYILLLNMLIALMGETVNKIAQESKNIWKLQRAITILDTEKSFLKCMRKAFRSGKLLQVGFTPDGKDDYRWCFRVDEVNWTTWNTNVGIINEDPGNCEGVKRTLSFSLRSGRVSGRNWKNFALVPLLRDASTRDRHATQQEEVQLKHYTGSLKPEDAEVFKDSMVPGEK

T1 sequence (Q8NER1 whole entry): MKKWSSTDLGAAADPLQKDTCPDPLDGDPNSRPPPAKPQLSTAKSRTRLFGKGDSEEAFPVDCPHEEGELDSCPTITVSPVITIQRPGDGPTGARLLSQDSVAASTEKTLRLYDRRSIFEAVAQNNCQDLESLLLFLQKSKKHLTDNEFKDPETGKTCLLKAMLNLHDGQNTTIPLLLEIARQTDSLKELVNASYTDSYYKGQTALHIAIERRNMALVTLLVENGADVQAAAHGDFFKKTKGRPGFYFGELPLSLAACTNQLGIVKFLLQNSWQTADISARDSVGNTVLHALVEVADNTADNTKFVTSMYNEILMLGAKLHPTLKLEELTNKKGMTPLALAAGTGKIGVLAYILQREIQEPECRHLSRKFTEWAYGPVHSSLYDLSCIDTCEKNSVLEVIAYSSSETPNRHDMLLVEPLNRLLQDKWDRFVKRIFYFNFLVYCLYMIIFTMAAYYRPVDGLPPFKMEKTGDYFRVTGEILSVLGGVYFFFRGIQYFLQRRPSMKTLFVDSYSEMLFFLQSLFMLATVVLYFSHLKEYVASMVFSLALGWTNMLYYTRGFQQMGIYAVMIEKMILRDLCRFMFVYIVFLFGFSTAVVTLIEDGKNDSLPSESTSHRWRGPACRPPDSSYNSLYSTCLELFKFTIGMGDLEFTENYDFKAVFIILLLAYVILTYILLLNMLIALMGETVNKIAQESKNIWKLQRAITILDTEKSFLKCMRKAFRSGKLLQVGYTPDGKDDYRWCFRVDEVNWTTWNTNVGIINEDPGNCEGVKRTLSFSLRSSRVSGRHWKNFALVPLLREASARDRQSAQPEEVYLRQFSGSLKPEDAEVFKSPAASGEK

Compound | Ki (hVR1) [nM] | Ki [1] [nM] | Ki (human being) [nM] Cap: agonist / partial agonist / no effect (hVR1) | Ki (rat) [nM] Cap: agonist / partial agonist / no effect [1]
CC(C(=O)NCc1cc(C(F)(F)F)nn1-c1cccc(Cl)c1)c1ccc2cc(O)ccc2c1 (stereo not drawn) [Example 50, N-((1-(3-chlorophenyl)-3-(trifluoromethyl)-1H-pyrazol-5-yl)methyl)-2-(6-hydroxynaphthalen-2-yl)propanamide] | 1.3 | 2.5 | pAG | pAG
CC(C(=O)NCc1cc(C(F)(F)F)nn1-c1cccc(Cl)c1)c1cccc2cnccc12 (stereo not drawn) [Example 64, N-((1-(3-chlorophenyl)-3-(trifluoromethyl)-1H-pyrazol-5-yl)methyl)-2-(isoquinolin-5-yl)propanamide] | 0.2 | 1 | – | –
CC(C(=O)NCc1cc(C(C)(C)C)nn1-c1cccc(Cl)c1)c1ccc2c(c1)OCCO2 (stereo not drawn) [Example 13, N-((3-tert-butyl-1-(3-chlorophenyl)-1H-pyrazol-5-yl)methyl)-2-(2,3-dihydrobenzo[b][1,4]dioxin-6-yl)propanamide] | 6.4 | 5.5 | pAG | pAG
Cc1nc2ccc(C(C)C(=O)NCc3cc(C(F)(F)F)nn3-c3cccc(Cl)c3)cc2s1 (stereo not drawn) [Example 45, N-((1-(3-chlorophenyl)-3-(trifluoromethyl)-1H-pyrazol-5-yl)methyl)-2-(2-methylbenzo[d]thiazol-6-yl)propanamide] | 15 | 14.7 | – | pAG

Results, then the compound that gave them:

Ki (hVR1) [nM] | Ki [1] [nM] | Ki (human being) [nM] Cap: agonist / partial agonist / no effect (hVR1) | Ki (rat) [nM] Cap: agonist / partial agonist / no effect [1] | Compound
10.8 | 15.8 | – | – | CC(C)(C)c1cc(CNC(=O)Nc2ccc3c(c2)CCC3)n(-c2cccc(Cl)c2)n1 [Example 79, 1-((3-tert-butyl-1-(3-chlorophenyl)-1H-pyrazol-5-yl)methyl)-3-(2,3-dihydro-1H-inden-5-yl)urea]
3.5 | – | pAG | AG | CC(C(=O)NCc1cc(C(C)(C)C)nn1-c1cccc(Cl)c1)c1ccc2c(c1)OCO2 (stereo not drawn) [Example 11, 2-(benzo[d][1,3]dioxol-5-yl)-N-((3-tert-butyl-1-(3-chlorophenyl)-1H-pyrazol-5-yl)methyl)propanamide]
